# In US6025378A, “Bicyclic heterocyclic compounds” (Bayer Aktiengesellschaft, priority 1995, dated 2000):
# Tested on: ApoB-100-associated lipoproteins released from HepG2 cells
# Assay: Inhibition of the release of ApoB-100-associated lipoproteins from cultured hepatic HepG2 cells (immunoassay for human LDL)
# Format: cell-based
# Details: HepG2 cells; culture supernatant; absorption at 450 nm inhibited by 50% vs solvent control; read-out: Apo B IC50
# Description: 1. Inhibition of the Release of ApoB-100-associated Lipoproteins
# The test for detection of the inhibition of the release of ApoB-100-associated lipoproteins from hepatic cells was carried out in vitro with cultured hepatic cells, preferably with cells of the human line HepG2. These cells are cultured under standard conditions in medium for culture of eukaryotic cells, preferably in RPMI 1640 with 10% foetal calf serum. HepG2 cells synthesize and secrete into the culture supernatant ApoB-100-associated lipoprotein particles, which are in principle built up similarly to the VLDL and LDL particles which are to be found in plasma.
# These particles can be detected with an immunoassay for human LDL. This immunoassay is carried out with antibodies which have been induced against human LDL in rabbits under standard conditions. The anti-LDL antibodies (rab-anti-LDL-Ab) were purified by affinity chromatography on an immunosorbent with human LDL. These purified rab-anti-LDL-Ab are adsorbed onto the surface of plastic. This adsorption is expediently carried out on the plastic surface of microtiter plates with 96 wells, preferably on MaxiSorp plates. If ApoB-100-associated particles are present in the supernatant of Hep-G2 cells, these can bond to the insolubilized rab-anti-LDL-Ab, and an immune complex bonded to the plastic surface is formed. Non-bonded proteins are removed by washing The immune complex on the plastic source is detected with monoclonal antibodies, which have been induced against human LDL and purified under standard conditions. These antibodies were conjugated with the enzyme peroxidase. Peroxidase converts the colourless substrate TMB into a coloured product in the presence of H2 O2. After acidification of the reaction mixture with H2 SO4, the specific absorption of light is determined at 450 nm, this being a measure of the amount of ApoB-100-associated particles wich had been secreted by the HepG2 cells into the culture supernatant.
# The IC50 value indicates the concentration of substance at which the absorption of light is inhibited by 50% compared with the control (solvent control without the substance).
row,Structure (SMILES),IC50
1,"O=C(N[C@@H](CO)c1ccccc1)C(c1ccc(Cn2c(-c3cscn3)nc3ccccc32)cc1)C1CCCCCC1 (single isomer, unassigned) [Example 30]",112 nM
2,"CSc1nc2ccccc2n1Cc1ccc(C(C(=O)N[C@@H](CO)c2ccccc2)C2CCCCCC2)cc1 (single isomer, unassigned) [Example 6]",8 nM
3,"O=C(N[C@@H](CO)c1ccccc1)C(c1ccc(Cn2c(SCc3ccccc3)nc3ccccc32)cc1)C1CCCC1 (single isomer, unassigned) [Example 13]",14.3 nM
4,O=C(N[C@@H](CO)c1ccccc1)C(c1ccc(Cn2nc(-c3ccc(Cl)cc3)c3ccccc3c2=O)cc1)C1CCCC1 (stereo partly drawn) [Example 77],14.9 nM
5,O=C(N[C@@H](CO)c1ccccc1)C(c1ccc(CN2C(=O)COc3cccnc32)cc1)C1CCCCCC1 (stereo partly drawn) [Example 57],5 nM
6,CCc1nc2ccccc2c(=O)n1Cc1ccc(C(C(=O)N[C@@H](CO)c2ccccc2)C2CCCC2)cc1 (stereo partly drawn) [Example 67],27.4 nM
7,Cc1cccc2c1[nH]c(=S)n2Cc1ccc(C(C(=O)N[C@@H](CO)c2ccccc2)C2CCCC2)cc1 (stereo partly drawn) [Example 54],60.2 nM
8,"Cc1cc2nc(C(F)(F)F)n(Cc3ccc(C(C(=O)N[C@@H](CO)c4ccccc4)C4CCCC4)cc3)c2cc1C (single isomer, unassigned) [Example 23]",147 nM
9,CCc1nc2ccccc2c(=O)n1Cc1ccc(C(C(=O)N[C@@H](CO)c2ccccc2)C2CCCC2)cc1 (stereo partly drawn) [Example 68],70.6 nM
10,O=C(N[C@@H](CO)c1ccccc1)C(c1ccc(CN2C(=O)c3ccccc3C2=O)cc1)C1CCCCCC1 (stereo partly drawn) [Example 62],123 nM
11,O=C(N[C@@H](CO)c1ccccc1)C(c1ccc(CN2C(=O)c3ccccc3C2=O)cc1)C1CCCCCC1 (stereo partly drawn) [Example 61],38.9 nM
12,Cc1cccc2c1[nH]c(=S)n2Cc1ccc(C(C(=O)N[C@@H](CO)c2ccccc2)C2CCCC2)cc1 (stereo partly drawn) [Example 55],19.5 nM
13,Cc1cccc2c1[nH]c(=S)n2Cc1ccc(C(C(=O)N[C@@H](CO)c2ccccc2)C2CCCC2)cc1 (stereo partly drawn) [Example 53],1690 nM
14,"O=C(N[C@@H](CO)c1ccccc1)C(c1ccc(Cn2c(-c3cscn3)nc3ccccc32)cc1)C1CCCC1 (single isomer, unassigned) [Example 26]",4.5 nM
15,"Cc1nc(-c2nc3ccccc3n2Cc2ccc(C(C(=O)N[C@@H](CO)c3ccccc3)C3CCCC3)cc2)cs1 (single isomer, unassigned) [Example 34]",26.6 nM
16,"Cc1nc(-c2nc3ccccc3n2Cc2ccc(C(C(=O)N[C@@H](CO)c3ccccc3)C3CCCC3)cc2)cs1 (single isomer, unassigned) [Example 35]",11.2 nM
17,O=C(N[C@@H](CO)c1ccccc1)C(c1ccc(CN2C(=O)c3ccccc3C2=O)cc1)C1CCCCCC1 (stereo partly drawn) [Example 60],9.7 nM
18,"CSc1nc2ccccc2n1Cc1ccc(C(C(=O)N[C@@H](CO)c2ccccc2)C2CCCC2)cc1 (single isomer, unassigned) [Example 3]",11.6 nM
19,O=C(N[C@@H](CO)c1ccccc1)C(c1ccc(CN2C(=O)COc3cccnc32)cc1)C1CCCCCC1 (stereo partly drawn) [Example 58],251 nM
20,O=C(N[C@@H](CO)c1ccccc1)C(c1ccc(Cn2nc(-c3ccc(Cl)cc3)c3ccccc3c2=O)cc1)C1CCCC1 (stereo partly drawn) [Example 78],279 nM
21,O=C(N[C@@H](CO)c1ccccc1)C(c1ccc(Cn2nc(-c3ccc(Cl)cc3)c3ccccc3c2=O)cc1)C1CCCC1 (stereo partly drawn) [Example 76],37.2 nM
22,"Cc1cc2nc(C(F)(F)F)n(Cc3ccc(C(C(=O)N[C@@H](CO)c4ccccc4)C4CCCC4)cc3)c2cc1C (single isomer, unassigned) [Example 24]",16.3 nM
23,"CSc1nc2ccccc2n1Cc1ccc(C(C(=O)N[C@@H](CO)c2ccccc2)C2CCCCCC2)cc1 (single isomer, unassigned) [Example 7]",150 nM
24,"O=C(N[C@@H](CO)c1ccccc1)C(c1ccc(Cn2c(-c3cscn3)nc3ccccc32)cc1)C1CCCC1 (single isomer, unassigned) [Example 27]",90.9 nM
25,"O=C(CSc1nc2ccccc2n1Cc1ccc(C(C(=O)N[C@@H](CO)c2ccccc2)C2CCCC2)cc1)c1ccccc1 (single isomer, unassigned) [Example 19]",388 nM
26,"CSc1nc2ccccc2n1Cc1ccc(C(C(=O)N[C@@H](CO)c2ccccc2)C2CCCC2)cc1 (single isomer, unassigned) [Example 4]",298 nM

# Same assay, conditions: Homo sapiens, HepG2, HepG2 cells; culture supernatant; absorption at 450 nm inhibited by 50% vs solvent control; read-out: Apo B IC50
row,Structure (SMILES),IC50
1,O=C(N[C@@H](CO)c1ccccc1)C(c1ccc(Cn2c(-c3cscn3)nc3ccccc32)cc1)C1CCCCC1 (stereo partly drawn) [Example 28],27.9 nM
2,O=C(N[C@@H](CO)c1ccccc1)C(c1ccc(Cn2c(-c3cscn3)nc3ccccc32)cc1)C1CCCC1 (stereo partly drawn) [Example 25],7.3 nM
3,Cc1nc(-c2nc3ccccc3n2Cc2ccc(C(C(=O)N[C@@H](CO)c3ccccc3)C3CCCC3)cc2)cs1 (stereo partly drawn) [Example 33],5.3 nM
4,O=C(NCc1ccccc1)C(c1ccc(Cn2c(-c3cscn3)nc3ccccc32)cc1)C1CCCCCC1 (stereo not drawn) [Example 32],5.3 nM
5,O=C(N[C@@H](CO)c1ccccc1)C(c1ccc(Cn2c(=O)oc3ccccc32)cc1)C1CCCCCC1 (stereo partly drawn) [Example 51],5.7 nM
6,"O=C(N[C@@H](CO)c1ccccc1)C(c1ccc(Cn2c(SCc3ccccc3)nc3ccccc32)cc1)C1CCCC1 (single isomer, unassigned) [Example 12]",12.6 nM
7,O=C(N[C@@H](CO)c1ccccc1)C(c1ccc(Cn2c(-c3cc4ccccc4s3)nc3ccccc32)cc1)C1CCCC1 (stereo partly drawn) [Example 41],10.6 nM
8,O=C(N[C@@H](CO)c1ccccc1)C(c1ccc(Cn2c(-c3cccs3)nc3ccccc32)cc1)C1CCCC1 (stereo partly drawn) [Example 39],81.7 nM
9,CCCCc1nn(Cc2ccc(C(C(=O)N[C@@H](CO)c3ccccc3)C3CCCC3)cc2)c(=O)c2ccccc12 (stereo partly drawn) [Example 73],29.4 nM
10,O=C(N[C@@H](CO)c1ccccc1)C(c1ccc(Cn2ncc3ccccc3c2=O)cc1)C1CCCCCC1 (stereo partly drawn) [Example 70],58.8 nM
11,O=C(N[C@@H](CO)c1ccccc1)C(c1ccc(CN2C(=O)CSc3ccccc32)cc1)C1CCCCCC1 (stereo partly drawn) [Example 59],29.2 nM
12,O=C(N[C@@H](CO)c1ccccc1)C(c1ccc(Cn2c(-c3ccccn3)nc3ccccc32)cc1)C1CCCCCC1 (stereo partly drawn) [Example 47],18.8 nM
13,"Cc1nc2ccccc2c(=O)n1Cc1ccc(C(C(=O)N[C@@H](CO)c2ccccc2)C2CCCC2)cc1 (stereo partly drawn) [Example 1, 2-Cyclopentyl-N-(2-hydroxy-1-(R)-phenylethyl)-2-[4-(2-methyl-4-oxo-4H-quinazolin-3-yl-methyl)phenyl]acetamide]",44.4 nM
14,CSc1nc2cc(C)c(C)cc2n1Cc1ccc(C(C(=O)N[C@@H](CO)c2ccccc2)C2CCCC2)cc1 (stereo partly drawn) [Example 8],4.7 nM
15,O=C(N[C@@H](CO)c1ccccc1)C(c1ccc(Cn2c(-c3cccnc3)nc3ccccc32)cc1)C1CCCC1 (stereo partly drawn) [Example 49],3.6 nM
16,CSc1nc2ccccc2n1Cc1ccc(C(C(=O)N[C@@H](CO)c2ccccc2)C2CCCCCC2)cc1 (stereo partly drawn) [Example 5],36 nM
17,O=C(N[C@@H](CO)c1ccccc1)C(c1ccc(Cn2c(SCc3c(Cl)cccc3Cl)nc3ccccc32)cc1)C1CCCC1 (stereo partly drawn) [Example 14],130 nM
18,C=CCSc1nc2ccccc2n1Cc1ccc(C(C(=O)N[C@@H](CO)c2ccccc2)C2CCCC2)cc1 (stereo partly drawn) [Example 10],9.5 nM
19,O=C(N[C@@H](CO)c1ccccc1)C(c1ccc(Cn2c(Cc3ccccc3)nc3ccccc32)cc1)C1CCCC1 (stereo partly drawn) [Example 20],248 nM
20,O=C(N[C@@H](CO)c1ccccc1)C(c1ccc(Cn2c(-c3ccsc3)nc3ccccc32)cc1)C1CCCC1 (stereo partly drawn) [Example 37],3.6 nM
21,Cc1ccc2c(nc(-c3cccs3)n2Cc2ccc(C(C(=O)N[C@@H](CO)c3ccccc3)C3CCCC3)cc2)c1C (stereo partly drawn) [Example 40],69 nM
22,O=C(N[C@@H](CO)c1ccccc1)C(c1ccc(Cn2c(-c3ccncc3)nc3ccccc32)cc1)C1CCCC1 (stereo partly drawn) [Example 50],17.9 nM
23,"C[S+]([O-])c1nc2ccccc2n1Cc1ccc(C(C(=O)N[C@@H](CO)c2ccccc2)C2CCCCCC2)cc1 (mixture of isomers) [Example 79, 2-(R/S)-Cycloheptyl-N-(2-hydroxy-1-(R)-phenylethyl)-2-[4-(2-methyl-(R/S)-sulphinyl-benzimidazol-1-ylmethyl)phenyl]acetamide]",15.2 nM
24,CSc1nc2ccccc2n1Cc1ccc(C(C(=O)N[C@@H](CO)c2ccccc2)C2CCCC2)cc1 (stereo partly drawn) [Example 2],38.1 nM
25,O=C(NCc1ccccc1)C(c1ccc(Cn2c(-c3ccccn3)nc3ccccc32)cc1)C1CCCCCC1 (stereo not drawn) [Example 48],6.3 nM
26,CCSc1nc2ccccc2n1Cc1ccc(C(C(=O)N[C@@H](CO)c2ccccc2)C2CCCC2)cc1 (stereo partly drawn) [Example 9],2.8 nM
27,Cc1ccc2c(nc(-c3ccsc3)n2Cc2ccc(C(C(=O)N[C@@H](CO)c3ccccc3)C3CCCC3)cc2)c1C (stereo partly drawn) [Example 38],36.3 nM
28,O=C(N[C@@H](CO)c1ccccc1)C(c1ccc(Cn2c(-c3csc(-c4ccccc4)n3)nc3ccccc32)cc1)C1CCCC1 (stereo partly drawn) [Example 36],9.1 nM
